Experimental findings from patent publication US7407954B2, “Thieno-(1,3)-oxazin-4-ones with lipase inhibiting activity” (Alizyme Therapeutics Limited, priority 2001, dated 2008) are described below.

pIC50: −log10 of the molar value.

One assay concerns the target T1, human pancreatic lipase (Homo sapiens, UniProt P16233).
T1 sequence (P16233 17-465): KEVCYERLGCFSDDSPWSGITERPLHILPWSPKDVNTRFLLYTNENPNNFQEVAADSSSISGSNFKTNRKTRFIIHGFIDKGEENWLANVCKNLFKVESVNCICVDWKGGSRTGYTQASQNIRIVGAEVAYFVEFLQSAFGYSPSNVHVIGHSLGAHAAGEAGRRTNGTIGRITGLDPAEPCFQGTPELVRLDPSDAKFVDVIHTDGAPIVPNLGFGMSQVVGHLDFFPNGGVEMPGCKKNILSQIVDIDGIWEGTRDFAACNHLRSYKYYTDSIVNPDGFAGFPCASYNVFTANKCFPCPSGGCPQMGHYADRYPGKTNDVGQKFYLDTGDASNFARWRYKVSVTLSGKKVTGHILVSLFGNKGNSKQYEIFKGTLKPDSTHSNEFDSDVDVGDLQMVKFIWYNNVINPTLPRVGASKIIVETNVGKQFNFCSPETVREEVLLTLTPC
Description: Lipase activity, quinine diimine dye colorimetric assay (Sigma Lipase-PS). The assay is classed as biochemical. As for the experimental part:
Measurement of Lipase Activity Using a Quinine Diimine Dye Calorimetric Assay
The inhibitory activity of the selected compounds to pancreatic lipase was measured in the following assay available from Sigma Ltd (Lipase-PS™, catalog number 805-A):
The glycerol released from the action of pancreatic and monoglyceride lipase was oxidised to release H2O2. The peroxidase reaction step then produces a quinine dye which is pink in colour and absorbs light at a wavelength of 550 nm.
Individual test compounds were dissolved in DMSO (dimethyl sulphoxide) at 10 mM. DMSO was used to avoid any problems with compounds being water-insoluble.
For individual compounds, the IC50 (concentration at which lipase activity is inhibited to one half of the maximum) was calculated by measuring the inhibitory activity from log-dose response curves using a range of inhibitor concentrations.
A range of standard compounds were assayed in the quinine dye calorimetric assay which provides a rapid method to measure lipase inhibitory activity.

Assay [1] deals with T2, porcine pancreatic lipase (Sus scrofa, UniProt P00591).
T2 sequence (P00591 1-450): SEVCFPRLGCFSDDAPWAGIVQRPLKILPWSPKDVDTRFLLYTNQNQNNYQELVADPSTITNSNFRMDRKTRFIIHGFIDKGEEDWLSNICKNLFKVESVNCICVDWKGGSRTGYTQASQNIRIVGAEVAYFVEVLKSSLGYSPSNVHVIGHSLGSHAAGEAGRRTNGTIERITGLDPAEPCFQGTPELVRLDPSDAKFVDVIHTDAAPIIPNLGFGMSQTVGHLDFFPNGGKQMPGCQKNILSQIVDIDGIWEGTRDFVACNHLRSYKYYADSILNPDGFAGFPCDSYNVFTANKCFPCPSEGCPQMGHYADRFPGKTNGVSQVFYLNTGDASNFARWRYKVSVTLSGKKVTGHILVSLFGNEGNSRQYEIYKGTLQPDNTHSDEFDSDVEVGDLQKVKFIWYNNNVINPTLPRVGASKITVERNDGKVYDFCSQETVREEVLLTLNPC
Put plainly: Lipase enzyme activity, NaOH titration method (lipid micelles). The format is biochemical. The conditions noted are these: NaOH titration assay. The procedure: Measurement of Lipase Enzyme Activity Using a NaOH Titration Method
The inhibitory activity of the selected compound to pancreatic lipase was measured in the assay described in Pasquier et al; 1996, Vol 7, Nutritional Biochemistry, 293-302.
Log dose/response curves were constructed using a range of inhibitor concentrations.
Selected thieno-oxazinone compounds were tested in the NaOH titration assay. In this assay, the activity of porcine pancreatic lipase in a system containing lipid micelles is recorded. These conditions are therefore similar to those encountered in the gastrointestinal tract.

The pIC50 is the IC50 on a negative log10 scale, so that one unit is a factor of ten. As for `O=c1oc(Nc2ccccc2)nc2sccc12` [Compound 1, 2-Phenylamino-4H-thieno[2,3-d][1,3]oxazin-4-one], the figures for the pIC50 (on human pancreatic lipase; in assay [1]) were greater than 7.00 and no less than 6.00, respectively.

In the case of `O=c1oc(Nc2ccc(Oc3ccccc3)cc2)nc2sccc12` [Compound 5, 2-(4-Phenoxy)phenylamino-4H-thieno[2,3-d][1,3]oxazin-4-one], the figures for the pIC50 (against human pancreatic lipase; in assay [1]) were greater than 7.00 and no less than 6.00, respectively.

Take `O=c1oc(Nc2ccccc2)nc2cc(-c3ccccc3)sc12` [Compound 6]: the results for the pIC50 (against human pancreatic lipase; in assay [1]) were greater than 7.00 and no less than 6.00, respectively.

As to `O=c1oc(Nc2ccc(Oc3cccc(C(F)(F)F)c3)cc2)nc2sccc12` [Compound 7, 2-(4-(3-Trifluoromethyl-phenoxy)phenylamino)-4H-thieno[2,3-d][1,3]oxazin-4-one], the pIC50 on human pancreatic lipase was greater than 7.00; in assay [1] it was no less than 6.00.

As for `CC(C)(C)c1cc2nc(Nc3ccccc3)oc(=O)c2s1` [Compound 8], the pIC50 against human pancreatic lipase is greater than 7.00; in assay [1], no less than 6.00. `Cc1cc2c(=O)oc(Nc3ccc(Oc4ccccc4)cc3)nc2s1` [Compound 9, 6-Methyl-2-(4-phenoxy)phenylamino-4H-thieno[2,3-d][1,3]oxazin-4-one]: the pIC50 on human pancreatic lipase was greater than 7.00; in assay [1] it was no less than 6.00. As for `O=c1oc(Nc2ccc(Oc3ccccc3)cc2)nc2ccsc12` [Compound 10, 2-(4-Phenoxy)phenylamino-4H-thieno[3,2-d][1,3]oxazin-4-one], the figures for the pIC50 (at human pancreatic lipase; in assay [1]) were greater than 7.00 and no less than 6.00, respectively.

For `O=c1oc(Nc2ccc(Cc3ccccc3)cc2)nc2sccc12` [Compound 11, 2-(4-Phenylmethyl)phenylamino-4H-thieno[2,3-d][1,3]oxazin-4-one], the pIC50 on human pancreatic lipase is greater than 7.00; in assay [1], no less than 6.00.

On to `O=C(c1ccccc1)c1ccc(Nc2nc3sccc3c(=O)o2)cc1` [Compound 12, 2-(4-Benzoyl)phenylamino-4H-thieno[2,3-d][1,3]oxazin-4-one], for which the pIC50 was greater than 7.00 against human pancreatic lipase and no less than 6.00 in assay [1]. As to `O=c1oc(Nc2ccc(Oc3ccc(C(F)(F)F)cc3)cc2)nc2sccc12` [Compound 14, 2-(4-(4-Trifluoromethyl-phenoxy)phenylamino)-4H-thieno[2,3-d][1,3]oxazin-4-one], the figures for the pIC50 (on human pancreatic lipase; in assay [1]) were greater than 7.00 and no less than 6.00, respectively. With `O=c1oc(Oc2ccc(Oc3cccc(C(F)(F)F)c3)cc2)nc2ccsc12` [Compound 15, 2-(4-(3-Trifluoromethyl-phenoxy)phenoxy)-4H-thieno[3,2-d][1,3]oxazin-4-one], the negative logarithm of the IC50 (pIC50) against human pancreatic lipase was greater than 7.00; in assay [1], no less than 6.00. Regarding `O=c1oc(Nc2ccc(Sc3ccccc3)cc2)nc2sccc12` [Compound 16, 2-(4-Phenylthio)phenylamino-4H-thieno[2,3-d][1,3]oxazin-4-one], the results for the pIC50 (against human pancreatic lipase; in assay [1]) were greater than 7.00 and no less than 6.00, respectively. `CCCCCCCCCCCCNc1nc2sc(C)cc2c(=O)o1` [Compound 18, 2-Dodecylamino-6-methyl-4H-thieno[2,3-d][1,3]oxazin-4-one] showed a pIC50 against human pancreatic lipase greater than 7.00.

Take `CCCCCCCCCCCCN(C)c1nc2sc(C)cc2c(=O)o1` [Compound 19, 2-N-Dodecyl-N-methylamino-6-methyl-4H-thieno[2,3-d][1,3]oxazin-4-one]: the pIC50 on human pancreatic lipase was greater than 7.00. With `CCCCCCCCCCCCNc1nc2sccc2c(=O)o1` [Compound 20, 2-Dodecylamino-4H-thieno[2,3-d][1,3]oxazin-4-one], the pIC50 on human pancreatic lipase is greater than 7.00. With `CCCCCCCCCCCCSc1nc2sc(C)cc2c(=O)o1` [Compound 21, 2-Dodecylthio-6-methyl-4H-thieno[2,3-d][1,3]oxazin-4-one], on human pancreatic lipase, the pIC50 is greater than 7.00.

`O=c1oc(Nc2ccc(S(=O)(=O)c3ccccc3)cc2)nc2sccc12` [Compound 23, 2-(4-Phenylsulfonyl)phenylamino-4H-thieno[2,3-d][1,3]oxazin-4-one] gave a negative-log IC50 (pIC50) against human pancreatic lipase greater than 7.00. `O=C(Nc1ccccc1)c1ccc(Nc2nc3sccc3c(=O)o2)cc1` [Compound 24, 2-(4-Phenylcarbamoyl)phenylamino-4H-thieno[2,3-d][1,3]oxazin-4-one] gave a pIC50 against human pancreatic lipase greater than 7.00.

The compound `O=c1oc(Nc2ccc(Oc3ccc(Cl)cc3)cc2)nc2sccc12` [Compound 25, 2-(4-(4-Chlorophenoxy)-phenylamino)-4H-thieno[2,3-d][1,3]oxazin-4-one] had a pIC50 on human pancreatic lipase greater than 7.00. Compound `Cc1ccc(Oc2ccc(Nc3nc4sccc4c(=O)o3)cc2)cc1` [Compound 26, 2-(4-(4-Methylphenoxy)-phenylamino)-4H-thieno[2,3-d][1,3]oxazin-4-one] gave a pIC50 against human pancreatic lipase greater than 7.00. Consider `N#Cc1ccc(Nc2nc3sccc3c(=O)o2)cc1` [Compound 27, 2-(4-Cyanophenyl)amino-4H-thieno[2,3-d][1,3]oxazin-4-one], for which the pIC50 on human pancreatic lipase is greater than 7.00. With `CCCc1cc2c(=O)oc(Nc3ccc(C#N)cc3)nc2s1` [Compound 28, 2-(4-Cyanophenyl)amino-6-propyl-4H-thieno[2,3-d][1,3]oxazin-4-one], the pIC50 at human pancreatic lipase was greater than 7.00. Consider `Cc1cc2c(=O)oc(Nc3ccc(C#N)cc3)nc2s1` [Compound 29, 2-(4-Cyanophenyl)amino-6-methyl-4H-thieno[2,3-d][1,3]oxazin-4-one], for which the pIC50 against human pancreatic lipase was greater than 7.00. For `N#Cc1ccc(Nc2nc3sc(Cc4ccccc4)cc3c(=O)o2)cc1` [Compound 30, 6-Phenylmethyl-2-(4-cyanophenyl)amino-4H-thieno[2,3-d][1,3]oxazin-4-one], the negative logarithm of the IC50 (pIC50) against human pancreatic lipase is greater than 7.00. For `CCCCCCCCCCCCc1cc2c(=O)oc(Nc3ccc(C#N)cc3)nc2s1` [Compound 31, 2-(4-Cyanophenyl)amino-6-dodecyl-4H-thieno[2,3-d][1,3]oxazin-4-one], at human pancreatic lipase, the pIC50 is greater than 7.00. As to `Cc1cc2c(=O)oc(NCCCCc3ccccc3)nc2s1` [Compound 32, 6-Methyl-2-(4-phenylbutyl)amino-4H-thieno[2,3-d][1,3]oxazin-4-one], the pIC50 against human pancreatic lipase was greater than 7.00. As to `Cc1cc2c(=O)oc(NCCCl)nc2s1` [Compound 33, 2-(2-Chloroethyl)amino-6-methyl-4H-thieno[2,3-d][1,3]oxazin-4-one], the pIC50 on human pancreatic lipase was greater than 7.00.

For `COC(=O)CCCCCNc1nc2sc(C)cc2c(=O)o1` [Compound 35, 2-(5-Methoxycarbonylpentyl)amino-6-methyl-4H-thieno[2,3-d][1,3]oxazin-4-one], the pIC50 at human pancreatic lipase is greater than 7.00. Same read-out and setting: next, `O=c1oc(Nc2ccc(Oc3ccc(C(F)(F)F)cc3)cc2)nc2ccsc12` [Compound 38, 2-(4-(4-Trifluoromethyl-phenoxy)phenylamino)-4H-thieno[3,2-d][1,3]oxazin-4-one]: greater than 7.00; `N#Cc1ccc(Nc2nc3ccsc3c(=O)o2)cc1` [Compound 40, 2-(4-Cyanophenyl)amino-4H-thieno[3,2-d][1,3]oxazin-4-one]: greater than 7.00; `CCCCCCCCCCCCNc1nc2ccsc2c(=O)o1` [Compound 41, 2-Dodecylamino-4H-thieno[3,2-d][1,3]oxazin-4-one]: greater than 7.00. As to `Cc1cc2nc(Nc3ccc(Oc4ccccc4)cc3)oc(=O)c2s1` [Compound 43, 5-Methyl-2-(4-phenoxy)phenylamino-4H-thieno[3,2-d][1,3]oxazin-4-one], the pIC50 against human pancreatic lipase was greater than 7.00; in assay [1], no less than 6.00.

For the compound `CCCc1cc2c(=O)oc(Nc3ccc(Oc4ccccc4)cc3)nc2s1` [Compound 44, 6-Propyl-2-(4-phenoxy)phenylamino-4H-thieno[2,3-d][1,3]oxazin-4-one], the pIC50 was greater than 7.00 on human pancreatic lipase and no less than 6.00 in assay [1].
